Consider four substances from patent US5221732A, “Antimicrobial magainin modified peptides” (priority 1988, dated 1993).

Where no end group is shown, it is not given here.

Data set [1] concerns Gram-positive and Gram-negative bacteria. The data set can be described thus: Antimicrobial assay, overall statements. The class given is cell-based. The protocol:
(§1) The antimicrobial activities of magainin analogues were assayed by macrodilution broth procedure of Jones et al (Jones, R. N., Barry, A. L., Gaven, T. L. and Washington, J. A. in "Manual of Clinical Microbiology", Lennette, D. H. Balows, A., Hausler, W. J. and Shadomy, H. J., eds; fourth edition, American Society for Microbiology, Washington, D.C., 1985) with modifications. Different concentrations of peptides were added to 2 ml of trypticase soy broth (BBL) containing the inocula of the test organisms adjusted to 10^5 and 10^6 CFU/ml. Microbial growth was determined by the increase in OD600, after incubation of the tubes at 35° C. for 6-9 h depending on the growth rate. […] The 50% minimal inhibitory concentration was determined from the plots of growth vs concentration of peptide.

Data set [2] in a line: Circular dichroic measurements. Format: physicochemical.
In data set [3] the test system is Staphylococcus aureus (ATCC 25923) beta-lactamase(-). The data set can be described thus: Antimicrobial assay, macrodilution broth. The settings on record: Staphylococcus aureus (25923) beta-lactamase(-); for 50% Minimal inhibitory concentration: 50% inhibition of growth; for 100% Minimal inhibitory concentration: complete inhibition of growth. The class given is cell-based. The protocol:
as §1

The subject of data set [4] is Streptococcus faecalis (ATCC 29212). The data set can be described thus: Antimicrobial assay, macrodilution broth. The class given is cell-based. The settings on record: Streptococcus faecalis (29212); for 50% Minimal inhibitory concentration: 50% inhibition of growth; for 100% Minimal inhibitory concentration: complete inhibition of growth. The protocol:
as §1

Data set [5] has as its system Escherichia coli (ATCC 25922). The data set can be described thus: Antimicrobial assay, macrodilution broth. The settings on record: Escherichia coli (25922); for 50% Minimal inhibitory concentration: 50% inhibition of growth; for 100% Minimal inhibitory concentration: complete inhibition of growth. Format: cell-based. Here is the method: as §1
Data set [6] relates to Staphylococcus aureus (ATCC 29213) beta-lactamase(+). The data set can be described thus: Antimicrobial assay, macrodilution broth. The settings on record: Staphylococcus aureus (29213) beta-lactamase(+); for 50% Minimal inhibitory concentration: 50% inhibition of growth; for 100% Minimal inhibitory concentration: complete inhibition of growth. The class given is cell-based. The protocol: as §1

Data set [7] relates to Klebsiella pneumoniae (ATCC 13883). Kind of data set: Antimicrobial assay, macrodilution broth. Format: cell-based. To be noted: Klebsiella pneumoniae (13883); for 50% Minimal inhibitory concentration: 50% inhibition of growth; for 100% Minimal inhibitory concentration: complete inhibition of growth. Here is the method: as §1
In data set [8] the test system is Pseudomonas aeruginosa (ATCC 27853). Kind of data set: Antimicrobial assay, macrodilution broth. Format: cell-based. The settings on record: Pseudomonas aeruginosa (27853); for 50% Minimal inhibitory concentration: 50% inhibition of growth; for 100% Minimal inhibitory concentration: complete inhibition of growth. The protocol:
as §1

Data set [9] deals with Streptococcus agalactiae (ATCC 12386). Kind of data set: Antimicrobial assay, macrodilution broth. The class given is cell-based. To be noted: Streptococcus agalactiae (12386); for 50% Minimal inhibitory concentration: 50% inhibition of growth; for 100% Minimal inhibitory concentration: complete inhibition of growth. Here is the method: as §1
The test system of another data set is human erythrocyte. Kind of data set: Erythrocyte hemolysis assay. Format: cell-based. Here is the method:
To 75×12 mm borosilicate test tubes containing a predetermined amount of dried peptide in duplicate, 2.5 ml of diluted human erythrocyte suspension (10%, v/v) in isotonic phosphate-buffered saline was added. After gentle mixing and incubation for 10 min at 37° C., tubes were centrifuged at 3000×g for 10 min. The supernatant was separated from cells and debris, diluted if necessary, and OD350 measured. 100% hemolysis was obtained by using 0.1% Triton X-100.

Setting [10] is: 40% CF3CH2OH (trifluoroethanol).

In the case of “Ac-GIGKFLHAAKKFAKAFVAEIMNS-NH2 [analogue C]”, the “growth inhibition of both Gram-positive and Gram-negative bacteria (in words)” value (from here on “growth inhibition”) in [1] is “active”. For the same substance, the “growth inhibitory activity toward Gram-negative bacteria” value in data set [1] (effect of acetylation of the alpha-amino terminus, versus analogue B) is recorded as “significantly reduced”. Also, the “% structure calculated from CD spectra, alpha-helix” value is 0% in data set [2] (50 mM K-phosphate, pH7) and 61% in data set [2] (setting [10]). Also, the “% structure calculated from CD spectra, beta-sheet” value (from here on “% structure calculated … beta-sheet”) in data set [2] (50 mM K-phosphate, pH7) is on record as 48%; in data set [2] (setting [10]) it was 14%. Further, the “50% Minimal inhibitory concentration” value in data set [3] is 10 mg/L; in [4] it was 5 mg/L; in [5] it was 10 mg/L; in data set [6] it was 7.5 mg/L; in [7], 60 mg/L; in data set [8], above 100 mg/L. Further, in data set [9], the “50% Minimal inhibitory concentration” value was 0.5 mg/L. In addition, the “100% Minimal inhibitory concentration” value in data set [3] was 25 mg/L; in data set [4], 25 mg/L; in [5] it was 25 mg/L; in data set [6], 25 mg/L; in [7], 100 mg/L; in data set [8] it was above 100 mg/L. Further, the “100% Minimal inhibitory concentration” value in data set [9] worked out at 1 mg/L.
For the substance “GIGKFLHSAKKFAKAFVAEIMNS-NH2 [analogue F]”, in the data set with human erythrocyte, the “hemolytic activity (in words, comparative)” value is on record as “lower hemolytic activity”. For the same substance, the “growth inhibition” value in data set [1] is “active”. Besides, the antimicrobial activity entry in [1] (effect of omission of replacement at Ser8) is “only slightly”. Moreover, the “% structure calculated from CD spectra, alpha-helix” value in data set [2] (50 mM K-phosphate, pH7) is reported as 1%; in [2] (setting [10]), 63%. The “% structure calculated … beta-sheet” value in data set [2] (50 mM K-phosphate, pH7) was 46%; in data set [2] (setting [10]), 6%. Further, the “50% Minimal inhibitory concentration” value in [3] came out at 10 mg/L; in data set [4] it was 10 mg/L; in data set [5], 1.2 mg/L; in [6], 5 mg/L; in data set [7], 5 mg/L; in data set [8] it was 25 mg/L. Further, the “50% Minimal inhibitory concentration” value in [9] is 0.25 mg/L. The “100% Minimal inhibitory concentration” value was 25 mg/L in data set [3]; 25 mg/L in data set [4]; 5 mg/L in data set [5]; 10 mg/L in data set [6]; 25 mg/L in data set [7]; 50 mg/L in data set [8]. Besides, the “100% Minimal inhibitory concentration” value in data set [9] came out at 1 mg/L.
In the case of “GIGKFLHAAKKFAKAFVAEIMNS-NH2 [analogue B]”, in [1], the “growth inhibition” value is listed as “active”. For the same substance, the “% structure calculated from CD spectra, alpha-helix” value is listed as 2% in [2] (50 mM K-phosphate, pH7) and 61% in data set [2] (setting [10]). Further, the “% structure calculated … beta-sheet” value in data set [2] (50 mM K-phosphate, pH7) is 44%; in [2] (setting [10]) it was 9%. In addition, the “50% Minimal inhibitory concentration” value turned out to be 5 mg/L in data set [3]; 5 mg/L in data set [4]; 1.2 mg/L in data set [5]; 5 mg/L in data set [6]; 5 mg/L in [7]; 15 mg/L in data set [8]. Besides, the “50% Minimal inhibitory concentration” value in data set [9] was determined as 0.25 mg/L. Also, the “100% Minimal inhibitory concentration” value in data set [3] worked out at 10 mg/L; in [4], 10 mg/L; in data set [5], 2.5 mg/L; in data set [6], 10 mg/L; in [7], 10 mg/L; in data set [8], 25 mg/L. The “100% Minimal inhibitory concentration” value in data set [9] was found to be 1 mg/L.
On to “GIGKFLHSAGKFGKAFVGEIMKS [Magainin 1, reference compound]”, for which the “% structure calculated from CD spectra, alpha-helix” value in data set [2] (50 mM K-phosphate, pH7) is given as 0%; in data set [2] (setting [10]), 24%. In addition, the “% structure calculated … beta-sheet” value in [2] (50 mM K-phosphate, pH7) is given as 44%; in data set [2] (setting [10]), 37%. Moreover, the “50% Minimal inhibitory concentration” value in data set [3] was determined as 360 mg/L; in data set [4] it was 360 mg/L; in [5] it was 100 mg/L; in data set [6], 500 mg/L; in data set [7], 100 mg/L; in data set [8] it was 430 mg/L. In addition, the “50% Minimal inhibitory concentration” value in data set [9] came to 60 mg/L. Moreover, the “100% Minimal inhibitory concentration” value was above 500 mg/L in data set [3]; above 500 mg/L in [4]; 250 mg/L in data set [5]; above 500 mg/L in [6]; 250 mg/L in [7]; above 500 mg/L in data set [8]. The “100% Minimal inhibitory concentration” value in [9] amounted to 75 mg/L.
